Data: ChEMBL document CHEMBL4715853 (J Med Chem, 2020)

Tested on: Human coronavirus 229E
Assay: Antiviral activity against HCoV-229E harboring GFP infected in human Huh-7 cells treated 1 hr prior to viral infection by fluorometric analysis
Format: functional, organism-based

SMILES: CCN(CC)CCCC(C)Nc1ccnc2cc(Cl)ccc12 (stereo unspecified) [CHLOROQUINE]
- EC50: 3.3 µM
